# Source: patent publication US4753953A, “Pyridonecarboxylic acid derivatives and antibacterial pharmaceutical compositions thereof” (priority 1985, dated 1988)
# Experiments:
# [1] = test system: Peptococcus magnus KY 017; test: MIC, in vitro antibacterial activity (standard strains); assay type: cell-based; details: 10^6 cells/ml; Gram +
# P. maltophilia GIFU 2491 = test: as above; assay type: cell-based; details: 10^6 cells/ml; Gram -
# E. coli ATCC 10536 = test: as above; assay type: cell-based, Escherichia coli; details: 10^6 cells/ml; Gram -
# [2] = test system: Eubacterium lentum GAI 5242; test: as above; assay type: cell-based; details: 10^6 cells/ml; Gram +
# E. limosum KYA 8486 = test: as above; assay type: cell-based; details: 10^6 cells/ml; Gram +
# P. aeruginosa IFO 12689 = test: as above; assay type: cell-based, Pseudomonas aeruginosa; details: 10^6 cells/ml; Gram -
# [3] = test system: B. thetaiotaomicron (0661); test: as above; assay type: cell-based; details: 10^6 cells/ml; Gram -
# [4] = test system: Bacillus subtilis PCI 219; test: as above; assay type: cell-based; details: 10^6 cells/ml; Gram +
# Pst. micros UPI 5464-1 = test: as above; assay type: cell-based; details: 10^6 cells/ml; Gram +
# [5] = test system: Yersinia enterocolitica IID 981; test: as above; assay type: cell-based; details: 10^6 cells/ml; Gram -
# [6] = test system: Klebsiella pneumoniae KY(GN)6445; test: as above; assay type: cell-based; details: 10^6 cells/ml; Gram -
# [7] = test system: S. aureus IID 670 (Terajima); test: as above; assay type: cell-based, Staphylococcus aureus; details: 10^6 cells/ml; Gram +
# C. perfringens KYA 13123 = test: microbe, parasite or virus in culture; assay type: cell-based; details: 10^6 cells/ml; Gram +
# [8] = test system: Salmonella enteritidis IID 604; test: MIC, in vitro antibacterial activity (standard strains); assay type: cell-based; details: 10^6 cells/ml; Gram -
# [9] = test system: Fusobacterium mortiferum 4249; test: as above; assay type: cell-based; details: 10^6 cells/ml; Gram -
# [10] = test system: Morganella morganii IID 602; test: as above; assay type: cell-based; details: 10^6 cells/ml; Gram -
# K. pneumoniae 1-220S = test: as above; assay type: cell-based, Klebsiella pneumoniae; details: 10^6 cells/ml; Gram -
# [11] = test system: Enterobacter cloacae IID 977; test: as above; assay type: cell-based; details: 10^6 cells/ml; Gram -
# F. varium KYA 8501 = test: as above; assay type: cell-based; details: 10^6 cells/ml; Gram -
# S. pyogenes IID 692 = test: as above; assay type: cell-based, Streptococcus pyogenes; details: 10^6 cells/ml; Gram +
# C. ramosum = test: as above; assay type: cell-based; details: 10^6 cells/ml; Gram +
# Shigella sonnei IID 969 = test: as above; assay type: cell-based; details: 10^6 cells/ml; Gram -
# Procedure: Minimal inhibitory concentrations (MICs) were determined in accordance with the method recommended by Japan Society of Chemotherapy.
# E. coli ML 4707 = test: as above; assay type: cell-based, Escherichia coli; details: 10^6 cells/ml; Gram -; Table 1
# F. necrophorum S-45 = test: as above; assay type: cell-based; details: 10^6 cells/ml; Gram -
# S. aureus Smith = test: as above; assay type: cell-based, Staphylococcus aureus; details: 10^6 cells/ml; Gram +
# B. vulgatus KYA 29327 = test: as above; assay type: cell-based; details: 10^6 cells/ml; Gram -
# P. cepacia GIFU 518 = test: as above; assay type: cell-based; details: 10^6 cells/ml; Gram -
# E. faecalis IID 682 = test: as above; assay type: cell-based; details: 10^6 cells/ml; Gram +
# [12] = test system: Propionibacterium acens 11828; test: as above; assay type: cell-based; details: 10^6 cells/ml; Gram +
# P. mirabilis IID 994 = test: as above; assay type: cell-based; details: 10^6 cells/ml; Gram -
# [13] = test system: Veillonella parvula KYA 10790; test: as above; assay type: cell-based; details: 10^6 cells/ml; Gram -
# [14] = test system: Bacteroides fragilis GM 7000; test: as above; assay type: cell-based; details: 10^6 cells/ml; Gram -
# [15] = test system: Streptococcus pyogenes (S-8); test: as above; assay type: cell-based; details: 10^6 cells/ml; Gram +
# [16] = test system: Proteus vulgaris IFO 3167; test: as above; assay type: cell-based; details: 10^6 cells/ml; Gram -
# [17] = test system: Alcaligenes faecalis 0114002; test: as above; assay type: cell-based; details: 10^6 cells/ml; Gram -
# [18] = test system: Escherichia coli NIHJ JC-2; test: as above; assay type: cell-based; details: 10^6 cells/ml; Gram -
# [19] = test system: Acinetobacter anitratus IID 876; test: as above; assay type: cell-based; details: 10^6 cells/ml; Gram -
# [20] = test system: Serratia marcescens IID 618; test: as above; assay type: cell-based; details: 10^6 cells/ml; Gram -
# B. fragilis 25285 = test: as above; assay type: cell-based, Bacteroides fragilis; details: 10^6 cells/ml; Gram -
# S. epidermidis IID 866 = test: as above; assay type: cell-based; details: 10^6 cells/ml; Gram +
# [21] = test system: Pseudomonas aeruginosa V-1; test: as above; assay type: cell-based; details: 10^6 cells/ml; Gram -
# B. fragilis 0558 = test: as above; assay type: cell-based, Bacteroides fragilis; details: 10^6 cells/ml; Gram -
# [22] = test system: Citrobacter freundii IID 976; test: as above; assay type: cell-based; details: 10^6 cells/ml; Gram -
# B. distasonis 8503 = test: as above; assay type: cell-based; details: 10^6 cells/ml; Gram -
# P. aeruginosa IID 1210 = test: as above; assay type: cell-based, Pseudomonas aeruginosa; details: 10^6 cells/ml; Gram -
# [23] = test system: Staphylococcus aureus 209 P; test: as above; assay type: cell-based; details: 10^6 cells/ml; Gram +
# S. pneumoniae IID 552 = test: as above; assay type: cell-based; details: 10^6 cells/ml; Gram +
# [24] = test system: Peptostreptococcus anaerobius KYA 27337; test: as above; assay type: cell-based; details: 10^6 cells/ml; Gram +
substance,measurement,setting,value
"7-(3-Aminomethyl-4-methyl-1-pyrrolidinyl)-1-cyclopropyl-6,8-difluoro-1,4-dihydro-4-oxo-3-quinolinecarboxylic acid [Example 2]",MIC,[1],0.20 µg/mL
same,MIC,P. maltophilia GIFU 2491,0.20 µg/mL
same,MIC,E. coli ATCC 10536,0.025 µg/mL
same,MIC,[2],0.78 µg/mL
same,MIC,E. limosum KYA 8486,1.56 µg/mL
same,MIC,P. aeruginosa IFO 12689,0.78 µg/mL
same,MIC,[3],0.78 µg/mL
same,MIC,[4],0.0125 µg/mL
same,MIC,Pst. micros UPI 5464-1,0.39 µg/mL
same,MIC,[5],0.05 µg/mL
same,MIC,[6],0.05 µg/mL
same,MIC,[7],0.025 µg/mL
same,MIC,C. perfringens KYA 13123,0.20 µg/mL
same,MIC,[8],0.05 µg/mL
same,MIC,[9],0.39 µg/mL
same,MIC,[10],0.10 µg/mL
same,MIC,K. pneumoniae 1-220S,0.05 µg/mL
same,MIC,[11],0.05 µg/mL
same,MIC,F. varium KYA 8501,0.78 µg/mL
same,MIC,S. pyogenes IID 692,0.05 µg/mL
same,MIC,C. ramosum,0.78 µg/mL
same,MIC,Shigella sonnei IID 969,0.025 µg/mL
same,MIC,E. coli ML 4707,0.025 µg/mL
same,MIC,F. necrophorum S-45,0.39 µg/mL
same,MIC,S. aureus Smith,0.025 µg/mL
same,MIC,B. vulgatus KYA 29327,0.78 µg/mL
same,MIC,P. cepacia GIFU 518,0.39 µg/mL
same,MIC,E. faecalis IID 682,0.10 µg/mL
same,MIC,[12],0.39 µg/mL
same,MIC,P. mirabilis IID 994,0.05 µg/mL
same,MIC,[13],0.39 µg/mL
same,MIC,[14],0.78 µg/mL
same,MIC,[15],0.05 µg/mL
same,MIC,[16],0.05 µg/mL
same,MIC,[17],0.20 µg/mL
same,MIC,[18],0.025 µg/mL
same,MIC,[19],0.05 µg/mL
same,MIC,[20],0.10 µg/mL
same,MIC,B. fragilis 25285,0.39 µg/mL
same,MIC,S. epidermidis IID 866,0.025 µg/mL
same,MIC,[21],0.10 µg/mL
same,MIC,B. fragilis 0558,0.39 µg/mL
same,MIC,[22],0.05 µg/mL
same,MIC,B. distasonis 8503,3.13 µg/mL
same,MIC,P. aeruginosa IID 1210,0.78 µg/mL
same,MIC,[23],0.025 µg/mL
same,MIC,S. pneumoniae IID 552,0.05 µg/mL
same,MIC,[24],0.10 µg/mL
